Measurements reported in ChEMBL document CHEMBL1681676, “The design and synthesis of novel N-hydroxyformamide inhibitors of ADAM-TS4 for the treatment of osteoarthritis” (Bioorg Med Chem Lett, 2011).

System: not listed separately
Experiment: Clearance in Han Wistar rat at 2 mg/kg, iv by LC-MS/MS analysis
Type: ADME, organism-based
Design: dose 2 mg/kg, route intravenous
Conditions: in vivo

SMILES	clearance [mL/min/kg]
Cc1noc(C)c1CCC1CCN(S(=O)(=O)C[C@](C)(C[C@H](C)c2ncc(F)cn2)N(O)C=O)CC1	11
C[C@@H](C[C@@](C)(CS(=O)(=O)N1CCC(OCc2ccc(Cl)cc2Cl)CC1)N(O)C=O)c1ncc(F)cn1	130
C[C@@H](C[C@@](C)(CS(=O)(=O)N1CCN(CCc2ccc(Cl)cc2Cl)CC1)N(O)C=O)c1ncc(F)cn1	14

Target: Voltage-gated inwardly rectifying potassium channel KCNH2 (Homo sapiens, UniProt Q12809)
Sequence (Q12809 whole entry): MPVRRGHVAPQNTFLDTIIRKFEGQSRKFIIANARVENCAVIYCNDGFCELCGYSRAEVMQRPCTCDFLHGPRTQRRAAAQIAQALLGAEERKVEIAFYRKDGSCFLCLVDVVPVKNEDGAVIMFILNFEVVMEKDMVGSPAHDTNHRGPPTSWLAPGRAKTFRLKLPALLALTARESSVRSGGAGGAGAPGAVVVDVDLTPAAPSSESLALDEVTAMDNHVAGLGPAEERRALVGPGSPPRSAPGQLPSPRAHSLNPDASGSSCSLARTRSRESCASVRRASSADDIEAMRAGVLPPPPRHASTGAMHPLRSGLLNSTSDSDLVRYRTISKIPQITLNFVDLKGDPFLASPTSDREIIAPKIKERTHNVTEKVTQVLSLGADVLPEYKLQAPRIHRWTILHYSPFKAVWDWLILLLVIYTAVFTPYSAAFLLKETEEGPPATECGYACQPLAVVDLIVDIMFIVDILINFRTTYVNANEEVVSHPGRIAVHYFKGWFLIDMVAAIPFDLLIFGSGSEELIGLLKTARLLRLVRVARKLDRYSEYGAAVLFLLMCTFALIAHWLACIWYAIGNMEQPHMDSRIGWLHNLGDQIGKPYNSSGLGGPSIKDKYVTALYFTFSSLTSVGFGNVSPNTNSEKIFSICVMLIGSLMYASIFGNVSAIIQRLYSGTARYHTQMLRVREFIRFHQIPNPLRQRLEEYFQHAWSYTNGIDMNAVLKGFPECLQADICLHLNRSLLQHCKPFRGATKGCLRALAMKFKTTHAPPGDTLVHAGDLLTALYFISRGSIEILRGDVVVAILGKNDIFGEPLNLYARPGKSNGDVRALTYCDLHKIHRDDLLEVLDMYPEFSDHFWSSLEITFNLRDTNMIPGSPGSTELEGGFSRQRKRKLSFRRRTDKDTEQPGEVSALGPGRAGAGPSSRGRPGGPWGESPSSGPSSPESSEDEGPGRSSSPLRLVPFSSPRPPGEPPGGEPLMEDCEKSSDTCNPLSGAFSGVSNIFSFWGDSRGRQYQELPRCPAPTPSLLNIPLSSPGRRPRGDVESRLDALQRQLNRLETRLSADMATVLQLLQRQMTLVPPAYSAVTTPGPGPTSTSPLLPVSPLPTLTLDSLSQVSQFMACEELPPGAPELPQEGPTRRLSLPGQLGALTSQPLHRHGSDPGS
Experiment: Inhibition of human ERG
Conditions: not given

SMILES	IC50 [nM]
C[C@@H](C[C@@](C)(CS(=O)(=O)N1CCC(OCc2ccc(Cl)cc2Cl)CC1)N(O)C=O)c1ncc(F)cn1	8000

Target: Matrix metalloproteinase-14 (Homo sapiens, UniProt P50281)
Experiment: Inhibition of recombinant human MMP14 assessed as substrate cleavage by measuring increase in fluorescence after 16 hrs
Conditions: not given

SMILES	IC50 [nM]
Cc1noc(C)c1CCC1CCN(S(=O)(=O)C[C@](C)(C[C@H](C)c2ncc(F)cn2)N(O)C=O)CC1	> 8900
C[C@@H](C[C@@](C)(CS(=O)(=O)N1CCC(OCc2ccc(Cl)cc2Cl)CC1)N(O)C=O)c1ncc(F)cn1	430

Target: T1, Interstitial collagenase (Homo sapiens, UniProt P03956)
T1 sequence (P03956 whole entry): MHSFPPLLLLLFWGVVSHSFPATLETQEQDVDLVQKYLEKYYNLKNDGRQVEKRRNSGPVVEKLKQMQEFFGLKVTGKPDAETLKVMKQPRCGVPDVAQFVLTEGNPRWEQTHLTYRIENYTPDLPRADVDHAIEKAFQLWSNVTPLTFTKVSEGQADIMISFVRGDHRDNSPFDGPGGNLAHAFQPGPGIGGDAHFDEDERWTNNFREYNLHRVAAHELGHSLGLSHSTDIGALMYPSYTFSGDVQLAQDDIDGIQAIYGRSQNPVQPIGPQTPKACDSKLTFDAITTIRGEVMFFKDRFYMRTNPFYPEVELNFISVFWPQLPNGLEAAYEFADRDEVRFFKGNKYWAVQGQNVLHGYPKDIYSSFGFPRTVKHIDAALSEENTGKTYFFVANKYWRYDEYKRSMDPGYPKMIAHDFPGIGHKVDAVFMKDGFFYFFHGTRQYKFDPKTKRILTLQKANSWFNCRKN
Experiment: Inhibition of recombinant human MMP1 assessed as substrate cleavage by measuring increase in fluorescence after 16 hrs
Conditions: not given

SMILES	IC50 [nM]
Cc1noc(C)c1CCC1CCN(S(=O)(=O)C[C@](C)(C[C@H](C)c2ncc(F)cn2)N(O)C=O)CC1	> 19000
C[C@@H](C[C@@](C)(CS(=O)(=O)N1CCC(OCc2ccc(Cl)cc2Cl)CC1)N(O)C=O)c1ncc(F)cn1	> 10000

System: Rattus norvegicus
Experiment: Volume of distribution at steady state in Han Wistar rat at 2 mg/kg, iv and po by LC-MS/MS analysis
Type: ADME, organism-based
Design: dose 2 mg/kg, route oral
Conditions: in vivo

SMILES	Vdss [L/kg]
Cc1noc(C)c1CCC1CCN(S(=O)(=O)C[C@](C)(C[C@H](C)c2ncc(F)cn2)N(O)C=O)CC1	7.4

System: not listed separately
Experiment: Oral bioavailability in mouse by LC-MS/MS analysis
Type: ADME, organism-based
Conditions: in vivo

SMILES	bioavailability [%]
Cc1noc(C)c1CCC1CCN(S(=O)(=O)C[C@](C)(C[C@H](C)c2ncc(F)cn2)N(O)C=O)CC1	34

Target: T2, A disintegrin and metalloproteinase with thrombospondin motifs 4 (Homo sapiens, UniProt O75173)
T2 sequence (O75173 whole entry): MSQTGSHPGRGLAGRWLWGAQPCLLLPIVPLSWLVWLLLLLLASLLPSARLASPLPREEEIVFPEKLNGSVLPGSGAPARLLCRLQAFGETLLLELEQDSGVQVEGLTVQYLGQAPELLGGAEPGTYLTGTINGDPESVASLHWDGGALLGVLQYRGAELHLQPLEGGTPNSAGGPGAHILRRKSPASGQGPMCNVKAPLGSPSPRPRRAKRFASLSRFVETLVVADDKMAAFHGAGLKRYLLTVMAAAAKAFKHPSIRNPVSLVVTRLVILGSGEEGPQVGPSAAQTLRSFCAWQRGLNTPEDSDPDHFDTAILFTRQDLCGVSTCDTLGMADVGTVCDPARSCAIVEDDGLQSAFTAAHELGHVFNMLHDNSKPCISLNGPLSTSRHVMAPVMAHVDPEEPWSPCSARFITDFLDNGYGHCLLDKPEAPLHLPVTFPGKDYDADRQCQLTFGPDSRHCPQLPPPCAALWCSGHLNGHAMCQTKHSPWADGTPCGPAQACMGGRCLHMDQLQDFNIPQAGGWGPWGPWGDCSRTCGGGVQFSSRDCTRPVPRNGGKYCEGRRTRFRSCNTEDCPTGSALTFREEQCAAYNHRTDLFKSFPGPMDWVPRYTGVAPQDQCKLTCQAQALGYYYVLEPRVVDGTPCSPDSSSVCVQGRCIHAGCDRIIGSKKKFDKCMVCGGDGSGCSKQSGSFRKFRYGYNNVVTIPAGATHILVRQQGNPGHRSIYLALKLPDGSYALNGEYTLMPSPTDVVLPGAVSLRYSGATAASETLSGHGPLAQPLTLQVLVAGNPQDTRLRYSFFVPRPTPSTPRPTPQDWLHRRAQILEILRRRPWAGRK
Experiment: Inhibition of ADAMTS-4 assessed as substrate cleavage by measuring increase in fluorescence after 16 hrs
Conditions: not given

SMILES	IC50 [nM]
C[C@@H](C[C@@](C)(CS(=O)(=O)N1CCN(CCc2ccc(Cl)cc2Cl)CC1)N(O)C=O)c1ncc(F)cn1	3.8

System: not listed separately
Experiment: Half life in Beagle dog at 1 mg/kg, iv and po by LC-MS/MS analysis
Type: ADME, organism-based, Canis lupus familiaris
Design: dose 1 mg/kg, route oral
Conditions: in vivo

SMILES	half-life [h]
Cc1noc(C)c1CCC1CCN(S(=O)(=O)C[C@](C)(C[C@H](C)c2ncc(F)cn2)N(O)C=O)CC1	11.3

System: not listed separately
Experiment: Oral bioavailability in Han Wistar rat at 3 to 10 mg/kg by LC-MS/MS analysis
Type: ADME, organism-based
Conditions: in vivo

SMILES	bioavailability [%]
C[C@@H](C[C@@](C)(CS(=O)(=O)N1CCC(OCc2ccc(Cl)cc2Cl)CC1)N(O)C=O)c1ncc(F)cn1	0
C[C@@H](C[C@@](C)(CS(=O)(=O)N1CCN(CCc2ccc(Cl)cc2Cl)CC1)N(O)C=O)c1ncc(F)cn1	30

Target: not listed separately
Experiment: Inhibition of aggrecanase-mediated aggrecan degradation in IL-1 and oncostatin M-stimulated human knee osteoarthritic cartilage after 48 hrs by immunoblot method
Conditions: not given

SMILES	IC50 [nM]
Cc1noc(C)c1CCC1CCN(S(=O)(=O)C[C@](C)(C[C@H](C)c2ncc(F)cn2)N(O)C=O)CC1	243

Target: not listed separately
Experiment: Inhibition of aggrecanase-mediated aggrecan degradation in IL-1-stimulated bovine nasal cartilage explant after 48 hrs by immunoblot method
Type: tissue-based, Bos taurus
Conditions: not given

SMILES	IC50 [nM]
Cc1noc(C)c1CCC1CCN(S(=O)(=O)C[C@](C)(C[C@H](C)c2ncc(F)cn2)N(O)C=O)CC1	310

Target: Disintegrin and metalloproteinase domain-containing protein 17 (Homo sapiens, UniProt P78536)
Sequence (P78536 whole entry, the tested form may be a part): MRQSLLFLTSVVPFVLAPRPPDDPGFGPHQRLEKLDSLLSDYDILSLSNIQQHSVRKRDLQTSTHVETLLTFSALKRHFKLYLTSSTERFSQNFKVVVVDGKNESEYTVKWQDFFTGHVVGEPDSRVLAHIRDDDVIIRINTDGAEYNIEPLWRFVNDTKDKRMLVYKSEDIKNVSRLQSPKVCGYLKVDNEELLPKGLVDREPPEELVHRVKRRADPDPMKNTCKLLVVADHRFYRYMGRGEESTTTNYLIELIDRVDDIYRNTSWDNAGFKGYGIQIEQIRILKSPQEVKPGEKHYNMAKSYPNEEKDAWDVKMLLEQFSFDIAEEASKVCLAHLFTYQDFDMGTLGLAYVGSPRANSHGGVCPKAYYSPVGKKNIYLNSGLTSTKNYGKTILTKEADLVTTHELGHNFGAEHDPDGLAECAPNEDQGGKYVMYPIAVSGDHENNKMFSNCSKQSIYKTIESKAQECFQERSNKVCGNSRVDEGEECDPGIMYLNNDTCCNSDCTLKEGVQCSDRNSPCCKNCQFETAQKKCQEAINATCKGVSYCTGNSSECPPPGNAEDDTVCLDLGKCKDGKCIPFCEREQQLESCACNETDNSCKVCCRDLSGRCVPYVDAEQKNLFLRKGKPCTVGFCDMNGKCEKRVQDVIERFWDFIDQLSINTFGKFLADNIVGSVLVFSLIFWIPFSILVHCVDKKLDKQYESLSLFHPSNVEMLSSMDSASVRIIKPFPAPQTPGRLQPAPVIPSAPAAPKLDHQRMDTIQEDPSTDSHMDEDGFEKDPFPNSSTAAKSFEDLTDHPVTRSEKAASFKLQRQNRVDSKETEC
Experiment: Inhibition of TACE assessed as substrate cleavage by measuring increase in fluorescence after 16 hrs
Conditions: not given

SMILES	IC50 [nM]
Cc1noc(C)c1CCC1CCN(S(=O)(=O)C[C@](C)(C[C@H](C)c2ncc(F)cn2)N(O)C=O)CC1	250

Target: Cytochrome P450 3A4 (Homo sapiens, UniProt P08684)
Sequence (P08684 whole entry): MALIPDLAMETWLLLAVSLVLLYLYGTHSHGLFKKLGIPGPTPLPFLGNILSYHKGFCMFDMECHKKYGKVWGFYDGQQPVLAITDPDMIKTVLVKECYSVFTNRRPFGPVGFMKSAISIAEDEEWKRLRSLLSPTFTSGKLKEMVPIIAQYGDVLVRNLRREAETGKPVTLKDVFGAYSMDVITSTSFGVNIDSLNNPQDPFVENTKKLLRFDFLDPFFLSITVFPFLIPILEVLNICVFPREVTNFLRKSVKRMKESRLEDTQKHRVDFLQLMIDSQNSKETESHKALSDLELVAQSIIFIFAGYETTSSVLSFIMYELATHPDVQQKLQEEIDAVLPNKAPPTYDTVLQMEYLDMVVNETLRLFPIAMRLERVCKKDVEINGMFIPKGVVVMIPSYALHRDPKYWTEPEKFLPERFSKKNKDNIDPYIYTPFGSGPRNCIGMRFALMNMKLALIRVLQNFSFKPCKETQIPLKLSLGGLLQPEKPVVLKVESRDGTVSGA
Experiment: Inhibition of CYP3A4
Type: ADME
Conditions: not given

SMILES	IC50 [nM]
C[C@@H](C[C@@](C)(CS(=O)(=O)N1CCC(OCc2ccc(Cl)cc2Cl)CC1)N(O)C=O)c1ncc(F)cn1	> 10000

System: Canis familiaris
Experiment: Volume of distribution at steady state in Beagle dog at 1 mg/kg, iv and po by LC-MS/MS analysis
Type: ADME, organism-based, Canis lupus familiaris
Design: dose 1 mg/kg, route oral
Conditions: in vivo

SMILES	Vdss [L/kg]
Cc1noc(C)c1CCC1CCN(S(=O)(=O)C[C@](C)(C[C@H](C)c2ncc(F)cn2)N(O)C=O)CC1	9.21

System: not listed separately
Experiment: Half life in Han Wistar rat at 2 mg/kg, iv and po by LC-MS/MS analysis
Type: ADME, organism-based
Design: dose 2 mg/kg, route oral
Conditions: in vivo

SMILES	half-life [h]
Cc1noc(C)c1CCC1CCN(S(=O)(=O)C[C@](C)(C[C@H](C)c2ncc(F)cn2)N(O)C=O)CC1	11
C[C@@H](C[C@@](C)(CS(=O)(=O)N1CCC(OCc2ccc(Cl)cc2Cl)CC1)N(O)C=O)c1ncc(F)cn1	0.3
C[C@@H](C[C@@](C)(CS(=O)(=O)N1CCN(CCc2ccc(Cl)cc2Cl)CC1)N(O)C=O)c1ncc(F)cn1	5.6

System: not listed separately
Experiment: Oral bioavailability in Han Wistar rat at 2 mg/kg by LC-MS/MS analysis
Type: ADME, organism-based
Conditions: in vivo

SMILES	bioavailability [%]
Cc1noc(C)c1CCC1CCN(S(=O)(=O)C[C@](C)(C[C@H](C)c2ncc(F)cn2)N(O)C=O)CC1	3.5

System: not listed separately
Experiment: Clearance in Beagle dog at 1 mg/kg, iv by LC-MS/MS analysis
Type: ADME, organism-based, Canis lupus familiaris
Design: dose 1 mg/kg, route intravenous
Conditions: in vivo

SMILES	clearance [mL/min/kg]
Cc1noc(C)c1CCC1CCN(S(=O)(=O)C[C@](C)(C[C@H](C)c2ncc(F)cn2)N(O)C=O)CC1	20

Target: Collagenase 3 (Homo sapiens, UniProt P45452)
Experiment: Inhibition of recombinant human MMP13 assessed as substrate cleavage by measuring increase in fluorescence after 16 hrs
Conditions: not given

SMILES	IC50 [nM]
Cc1noc(C)c1CCC1CCN(S(=O)(=O)C[C@](C)(C[C@H](C)c2ncc(F)cn2)N(O)C=O)CC1	> 8100
C[C@@H](C[C@@](C)(CS(=O)(=O)N1CCC(OCc2ccc(Cl)cc2Cl)CC1)N(O)C=O)c1ncc(F)cn1	430

System: not listed separately
Experiment: Intrinsic clearance in human liver microsomes
Conditions: not given

SMILES	microsomal CLint [µL/min/mg]
C[C@@H](C[C@@](C)(CS(=O)(=O)N1CCC(OCc2ccc(Cl)cc2Cl)CC1)N(O)C=O)c1ncc(F)cn1	107
C[C@@H](C[C@@](C)(CS(=O)(=O)N1CCN(CCc2ccc(Cl)cc2Cl)CC1)N(O)C=O)c1ncc(F)cn1	54

Target: 72 kDa type IV collagenase (Homo sapiens, UniProt P08253)
Sequence (P08253 whole entry): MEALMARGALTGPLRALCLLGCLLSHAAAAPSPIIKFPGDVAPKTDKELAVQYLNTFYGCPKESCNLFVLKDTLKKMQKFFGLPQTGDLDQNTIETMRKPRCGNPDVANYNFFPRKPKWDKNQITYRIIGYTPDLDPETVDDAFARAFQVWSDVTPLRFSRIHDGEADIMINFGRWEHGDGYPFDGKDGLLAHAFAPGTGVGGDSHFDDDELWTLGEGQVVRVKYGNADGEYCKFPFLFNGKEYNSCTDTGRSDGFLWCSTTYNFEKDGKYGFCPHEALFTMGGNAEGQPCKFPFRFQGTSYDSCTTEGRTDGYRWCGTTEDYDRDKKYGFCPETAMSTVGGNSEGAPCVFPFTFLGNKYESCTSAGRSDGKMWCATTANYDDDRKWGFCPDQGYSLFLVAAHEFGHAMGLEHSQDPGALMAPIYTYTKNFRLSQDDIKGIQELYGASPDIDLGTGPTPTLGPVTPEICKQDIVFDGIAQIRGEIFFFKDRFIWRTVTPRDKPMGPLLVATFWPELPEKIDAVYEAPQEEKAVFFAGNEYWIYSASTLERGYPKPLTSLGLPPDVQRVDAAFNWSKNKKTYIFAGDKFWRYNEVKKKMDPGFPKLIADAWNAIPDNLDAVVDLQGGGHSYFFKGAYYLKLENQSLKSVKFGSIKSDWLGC
Experiment: Inhibition of recombinant human MMP2 assessed as substrate cleavage by measuring increase in fluorescence after 16 hrs
Conditions: not given

SMILES	IC50 [nM]
Cc1noc(C)c1CCC1CCN(S(=O)(=O)C[C@](C)(C[C@H](C)c2ncc(F)cn2)N(O)C=O)CC1	> 6300

System: not listed separately
Experiment: Intrinsic clearance in rat hepatocytes measured per 10^6 cells
Type: ADME, cell-based, Liver, Hepatocyte
Conditions: not given

SMILES	hepatocyte CLint [µL/min/1e6 cells]
C[C@@H](C[C@@](C)(CS(=O)(=O)N1CCC(OCc2ccc(Cl)cc2Cl)CC1)N(O)C=O)c1ncc(F)cn1	56.9
C[C@@H](C[C@@](C)(CS(=O)(=O)N1CCN(CCc2ccc(Cl)cc2Cl)CC1)N(O)C=O)c1ncc(F)cn1	10.2

System: not listed separately
Experiment: Oral bioavailability in Beagle dog at 1 mg/kg by LC-MS/MS analysis
Type: ADME, organism-based, Canis lupus familiaris
Conditions: in vivo

SMILES	bioavailability [%]
Cc1noc(C)c1CCC1CCN(S(=O)(=O)C[C@](C)(C[C@H](C)c2ncc(F)cn2)N(O)C=O)CC1	20
